Entries after “also recorded” stand apart in the source; their conditions may differ. Read-outs that look alike come from different tables or passages of the source.
Legend:
DENV2 NGC = test: Screening antiviral efficacy: viral inhibition at 10 µM in DENV2-infected LLC/MK2 cells, plaque titration; assay type: cell-based, DENV2 (New Guinea C strain); details: for inhibition at 10 µM: Dengue virus
Protocol: The flavone analogs were preliminary screened for their viral inhibitory activity against DENV2 NGC (accession number NC_001474.2) in a LLC/MK2 (ATCC CCL-7™) cell-based system at the final concentration of 10 μM. […] On the other hand, the acylation of the hydroxy groups on the A-ring yielded mixed results.
LLC/MK2 cells (5 × 10^4) were seeded in 24-well plate and incubate at 37 °C under 5% CO2 overnight. Cells were infected with DENV2 NGC at a multiplicity of infection (M.O.I. of 0.1) and compounds at 10 µM were added and DMSO at 1% was used as control. Cultured plates were incubated for 1 h with gentle rocking every 15 min. Cells were washed with PBS, MEM supplemented with 1% FBS, 100 I.U./mL penicillin, and 100 µg/mL streptomycin, 10 mM HEPES was added in a presence of a compound at 10 µM. Cells were incubated at 37 °C with 5% CO2 for 3 days. Supernatants were collected to determine viral titers by plaque titration assay as previously described. The selected compounds were further analyzed for an effective concentration (EC50).

[1] = Cellular toxicity in LLC/MK2 cells (MTS assay); assay type: cell-based; details: rhesus monkey
[2] = Cellular toxicity in LLC/MK2 cells (MTS assay); assay type: cell-based; details: rhesus monkey; remark: listed apart in the source
Protocol: Cytotoxicity of the compounds was also accessed at the concentration of 10 µM in parallel with the viral inhibition screening. LLC/MK2 cells (1 × 10^4) were seeded in 96-well plate and incubated at 37 °C under 5% CO2 overnight; compounds were added after 24 h, and then incubated for 2 days. DMSO at 1% was used as mock treatment. Cytotoxicity was measured using CellTiter 96® Aqueous One Solution Cell Proliferation Assay (MTS) kit (Promega, Wisconsin-Madison, WI, USA) according to the manufacturer’s instruction and analyzed by EnSight Multimode Plate Reader spectrophotometry at A450nm. (Perkin Elmer, Waltham, MA, USA).

DENV2 [3] = test: Antiviral efficacy (EC50) against DENV2 in LLC/MK2 cells, plaque titration; assay type: cell-based, DENV2 (New Guinea C strain); details: for EC50: Dengue virus, DENV2, LLC/MK2 cells, three independent experiments, read-out: EC50 (50% effective concentration against DENV2); for fold increase in activity compared with 8-bromobaicalein 5f / fold more active than the original baicalein 5a: EC50 against DENV2
Protocol: LLC/MK2 (ATCC® CCL-7), and C6/36 (ATCC® CRL-1660) cell lines were propagated and maintained as previously described[18],[29],[31]. Effective concentration (EC50) of the compounds against the DENV2 were tested using LLC/MK2 cells[18],[29]. Briefly, cells were seeded overnight and infected with each virus at the multiplicity of infection (M.O.I.) of 0.1 for 1 h. The compound was added during and after infection, and cells were incubated for 72 h. Supernatants were collected for plaque titration. EC50 results were means and standard errors of three independent experiments.

dengue virus = test system: dengue virus; parameters: method as in PMID 28389141; details: mice administered with luteolin; cited from earlier work
DENV2 [4] = test system: DENV2; parameters: method as in PMID 23140177, PMID 29057920; details: data according to literature (footnote f); read-out: EC50 (50% effective concentration against DENV2); cited from earlier work
[5] = test system: DENV2 replication in Vero cells; parameters: method as in PMID 31441148, PMID 23140177; details: cited from earlier work
[6] = DENV2, LLC-MK2, read-out: %Inhibition (%viral inhibition against DENV2)
[7] = 10 μM, read-out: %Viability in LLC/MK2 cell
[8] = 10 μM, DENV2 NGC-infected LLC/MK2 cells, NA = not active, read-out: %Inhibition (%viral inhibition against DENV2)

| SMILES | viability at 2 days, 10 µM [2] | inhibition at 10 µM (DENV2 NGC; [8]) | other results |
| --- | --- | --- | --- |
| CCC(=O)Oc1cc2oc(-c3ccccc3)cc(=O)c2c(OC(=O)CC)c1OC(=O)CC [5d, 5,6,7-Tripropionoxyflavone] | – | – | inhibition at 10 µM (DENV2 NGC; [6]): 90%; CC50 at 2 days ([1]; LLC/MK2 cells, read-out: CC50): > 100000 nM; viability at 2 days, 10 µM [2, 7]: 83.8 ± 2.61%; EC50 (DENV2 [3]): 70 ± 15 nM; fold increase in activity compared with 8-bromobaicalein 5f (DENV2 [3]): over tenfold; also recorded: more than tenfold; fold more active than the original baicalein 5a (DENV2 [3]): over 300 fold |
| Nc1ccc(-c2cc(=O)c3c(O)c(O)c(O)cc3o2)cc1 [5o, 4′-Amino-5,6,7-trihydroxyflavone] | 109 ± 2.53% | – | – |
| O=c1cc(-c2ccc(O)c(O)c2)oc2cc(O)cc(O)c12 [luteolin] | – | – | reduction of the virus load (dengue virus): tenfold reduction |
| COc1cc2oc(-c3ccc(Br)cc3)cc(=O)c2c(OC)c1OC [5j, 4′-Bromo-5,6,7-trimethoxylflavone] | 101 ± 11.1% | 70.4% | – |
| COc1cc2oc(-c3ccc(Br)cc3)cc(=O)c2c(O)c1OC [5p, 4′-Bromo-5-hydroxy-6,7-dimethoxyflavone] | 96.8 ± 5.28% | 64.8% | – |
| O=c1cc(-c2ccccc2)oc2c([N+](=O)[O-])c(O)cc(O)c12 [4e, 5,7-Dihydroxy-8-nitroflavone] | – | – | inhibition at 10 µM (DENV2 NGC; [6]): 33.3%; viability at 2 days, 10 µM [2, 7]: 52.5 ± 2.59% |
| COc1cc2oc(-c3ccc([N+](=O)[O-])cc3)cc(=O)c2c(O)c1O [5r, 5,6-Dihydroxy-7-methoxy-4′-nitroflavone] | 91.6 ± 0.89% | 22.2% | melting point: 174 to 178 °C |
| COc1cc2oc(-c3ccccc3)cc(=O)c2c(OC)c1OC [5i, 5,6,7-Trimethoxyflavone] | 96.8 ± 11.9% | 44.4% | – |
| O=c1cc(-c2ccc(Br)cc2)oc2cc(O)c(O)c(O)c12 [5m, 4′-Bromo-5,6,7-trihydroxyflavone] | 90 ± 6.61% | 100% | EC50 (DENV2 [3]): 520 ± 120 nM |
| COc1cc2oc(-c3ccc([N+](=O)[O-])cc3)cc(=O)c2c(OC)c1OC [5k, 5,6,7-Trimethoxy-4′-nitroflavone] | 101 ± 1.97% | 70% | – |
| CCC(=O)Oc1cc2oc(-c3ccccc3)cc(=O)c2c(O)c1OC(=O)CC [5e, 5-Hydroxy-6,7-dipropionoxyflavone] | 89.6 ± 5.95% | 91.7% | CC50 at 2 days [1]: > 100000 nM; melting point: 132 to 134 °C; EC50 (DENV2 [3]): 68 ± 40 nM; fold increase in activity compared with 8-bromobaicalein 5f (DENV2 [3]): over tenfold; also recorded: more than tenfold; fold more active than the original baicalein 5a (DENV2 [3]): over 300 fold |
| O=c1cc(-c2ccccc2)oc2c3c(ccc12)OCO3 [3b, 7,8-Dioxoloflavone] | 96.6 ± 1.01% | – | – |
| COc1cc2oc(-c3ccc([N+](=O)[O-])cc3)cc(=O)c2c(O)c1OC [5q, 5-Hydroxy-6,7-dimethoxy-4′-nitroflavone] | 84.7 ± 5.07% | 98.2% | melting point: 145 to 150 °C; EC50 (DENV2 [3]): 4520 ± 760 nM |
| O=c1cc(-c2ccccc2)oc2c(Br)c(O)c(Br)c(O)c12 [4d, 6,8-Dibromo-5,7-dihydroxyflavone] | 101.1 ± 0.44% | – | inhibition at 10 µM (DENV2 NGC; [6]): 83%; EC50 (DENV2 [4]): 1470 ± 860 nM |
| CCC(=O)Oc1c(OC(=O)CC)c(OC(=O)CC)c2c(=O)cc(-c3ccccc3)oc2c1Br [5h, 8-Bromo-5,6,7-tripropionoxyflavone] | 84.5 ± 6.56% | – | %Inhibition (%viral inhibition against DENV2) (DENV2 NGC; 10 μM, DENV2 NGC-infected LLC/MK2 cells, NA = not active): inactive; melting point: 113 to 115 °C |
| Nc1c(O)cc(O)c2c(=O)cc(-c3ccccc3)oc12 [4f, 8-Amino-5,7-dihydroxyflavone] | 93.4 ± 3.29% | – | – |
| COc1ccc2c(=O)cc(-c3ccccc3)oc2c1 [2b, 7-Methoxyflavone] | 84.5 ± 3.34% | – | inhibition at 10 µM (DENV2 NGC; [6]): 37.5% |

| SMILES | viability at 2 days, 10 µM [2] | inhibition at 10 µM (DENV2 NGC; [8]) | other results |
| --- | --- | --- | --- |
| COc1cc(O)c2c(=O)cc(-c3ccccc3)oc2c1 [4b, 5-Hydroxy-7-methoxyflavone] | 97.5 ± 1% | 16.7% | – |
| O=c1cc(-c2ccccc2)oc2cc(O)ccc12 [2a, 7-hydroxyflavone] | – | 37.5% | viability at 2 days, 10 µM [2, 7]: 122 ± 7.21% |
| COc1ccc2oc(-c3ccccc3)cc(=O)c2c1 [1b, 6-Methoxyflavone] | 95.2 ± 8.12% | – | inhibition at 10 µM (DENV2 NGC; [6]): 77% |
| O=c1cc(-c2ccccc2)oc2c(O)c(O)ccc12 [3a, 7,8-dihydroxyflavone] | – | – | inhibition at 10 µM (DENV2 NGC; [6]): 58.3%; viability at 2 days, 10 µM [2, 7]: 79.4 ± 3.2% |
| O=c1cc(-c2ccccc2)oc2c(Br)c(O)c(O)c(O)c12 [5f, 8-Bromo-5,6,7-trihydroxyflavone] | 73.4 ± 14.8% | – | inhibition at 10 µM (DENV2 NGC; [6]): 100%; EC50 (DENV2 [4]): 880 ± 140 nM |
| CC(=O)Oc1c(OC(C)=O)c(OC(C)=O)c2c(=O)cc(-c3ccccc3)oc2c1Br [5g, 5,6,7-Triacetoxy-8-bromoflavone] | 50.9 ± 3.22% | 100% | EC50 (DENV2 [3]): 260 ± 140 nM |
| CCC(=O)Oc1ccc2c(=O)cc(-c3ccccc3)oc2c1 [2c, 7-Propionoxyflavone] | 115 ± 1.55% | 37.5% | – |
| CCC(=O)Oc1ccc2oc(-c3ccccc3)cc(=O)c2c1 [1c, 6-Propionoxyflavone] | 89.18 ± 0.78% | 73% | – |
| O=c1cc(-c2ccc([N+](=O)[O-])cc2)oc2cc(O)c(O)c(O)c12 [5n, 5,6,7-Trihydroxy-4′-nitroflavone] | 78.5 ± 9.87% | 100% | EC50 (DENV2 [3]): 4300 ± 560 nM |
| O=c1cc(-c2ccccc2)oc2cc(O)c(O)c(O)c12 [5a, baicalein] | – | – | inhibition at 10 µM (DENV2 NGC; [6]): 75%; viability at 2 days, 10 µM [2, 7]: 92.9 ± 1.44%; EC50 (DENV2 [4]): 23900 nM; IC50 [5]: 23900 nM; selectivity index (SI) [5]: 17.8 |
| COc1cc2oc(-c3ccccc3)cc(=O)c2c(O)c1OC [5b, 5-Hydroxy-6,7-dimethoxyflavone] | 97.5 ± 2.47% | 80% | – |
| O=c1cc(-c2ccccc2)oc2cc(O)cc(O)c12 [4a, chrysin] | 84.8 ± 2.03% | 16.7% | – |
| O=c1cc(-c2ccccc2)oc2cc(OCc3ccccc3)cc(O)c12 [4c, 7-Benzyloxy-5-hydroxyflavone] | 86.1 ± 3.05% | – | – |
| O=c1cc(-c2ccccc2)oc2ccc(O)cc12 [1a, 6-hydroxyflavone] | 69.5 ± 14.3% | 90% | – |
| COc1cc2oc(-c3ccc(N)cc3)cc(=O)c2c(OC)c1OC [5l, 4′-Amino-5,6,7-trimethoxyflavone] | 93 ± 2.36% | 62% | – |
| CC(=O)Oc1cc2oc(-c3ccccc3)cc(=O)c2c(OC(C)=O)c1OC(C)=O [5c, 5,6,7-Triacetoxyflavone] | – | – | inhibition at 10 µM (DENV2 NGC; [6]): 100%; viability at 2 days, 10 µM [2, 7]: 107 ± 7.34%; EC50 (DENV2 [3]): 410 ± 560 nM |

Source: article PMC9751290, “Design, synthesis, in vitro, in silico, and SAR studies of flavone analogs towards anti-dengue activity” (Scientific Reports, 2022)
